The source of these data is patent US8017612B2, “Piperazine compound and use thereof as a HCV polymerase inhibitor” (priority 2006, dated 2011).

As usually defined, the IC50 is the concentration that inhibits the measured activity by half. A low value points to higher potency.

Experiment [1] addresses T1, HCV polymerase (NS5B) type 1b (Hepatitis C virus genotype 1b, UniProt P26663).
T1 construct: a region encoding NS5B (J Virol 1991 March, 65(3), 1105-13, 544 amino acids after deletion of 47 amino acids on the C-terminal); 6xHis (C); made in house; host or cells: Escherichia coli
The experiment is described as follows: Assay of enzyme (HCV polymerase) inhibitory activity, type 1b enzyme. It is filed as biochemical, HCV BK strain (type 1b). The method in brief:
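IC50 derived from [3H]UTP incorporation into TCA-insoluble RNA, compared with and without test compound. Reaction (25 °C, 60 min, Tris pH 7.5, 5 mM MgCl2): E. coli-expressed 1b NS5B Δ47 with His tag at 0.5 μg/ml, 5 μg/ml run-off substrate RNA, ATP/GTP/CTP 50 μM, UTP 2 μM.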

Experiment [2] deals with T2, HCV polymerase (NS5B) type 1a (Hepatitis C virus genotype 1a, UniProt P26664).
T2 construct: made in house; host or cells: Escherichia coli (by the 'similar method' of the 1b enzyme)
The experiment in a line: Assay of enzyme (HCV polymerase) inhibitory activity, type 1a enzyme. It is filed as biochemical, HCV type 1a (cloned from the blood of patients). A digest of the protocol:
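Reactions ran 60 min at 25° C in 20 mM Tris-HCl pH 7.5, 5 mM MgCl2, 50 mM NaCl, holding genotype 1a NS5B (1.5 μg/ml, Δ47 C-terminus, 6His), substrate RNA 5 μg/ml, UTP 2 μM with tritiated UTP and other NTPs 50 μM. IC50 derived from incorporated radiolabel in filter-trapped RNA relative to uninhibited reaction.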

The mark [3] stands for this setting: HCV polymerase inhibitory activity IC50, 1b, type 1b enzyme.
Setting [4] is: HCV polymerase inhibitory activity IC50, 1a, type 1a enzyme.
Where [5] appears, read: HCV polymerase inhibitory activity (IC50), 1b, type 1b enzyme 0.5 μg/ml, 25° C., 60 min.
[6] abbreviates: HCV polymerase inhibitory activity (IC50), 1a, type 1a enzyme 1.5 μg/ml, 25° C., 60 min.

Turning to `O=C(NCc1ccc(OC(F)(F)F)cc1)[C@H]1CN(c2cnc3cnccc3n2)CCN1S(=O)(=O)c1ccc([N+](=O)[O-])cc1` [Example 754, (R)-1-(4-nitro-benzenesulfonyl)-4-pyrido[3,4-b]pyrazin-2-yl-piperazine-2-carboxylic acid 4-trifluoromethoxy-benzylamide], the IC50 in experiment [1] (setting [3]) and in experiment [2] (setting [4]) was < 0.1 µM each time.
On to `Cc1cc(=O)nc2sc(N3CCN(S(=O)(=O)c4ccc(OC(F)(F)F)cc4)[C@@H](C(=O)NCc4ccc(OC(F)F)cc4)C3)nn12` [Example 1027, (R)-4-(5-methyl-7-oxo-7H-[1,3,4]thiadiazolo[3,2-a]pyrimidin-2-yl)-1-(4-trifluoromethoxy-benzenesulfonyl)-piperazine-2-carboxylic acid 4-difluoromethoxy-benzylamide], for which the concentration for half-maximal inhibition (IC50) in experiment [1] (setting [3]) and in experiment [2] (setting [4]) was < 0.1 µM each time.
With `CCC(F)(F)c1ccc(CNC(=O)[C@H]2CN(C(=O)Nc3ccnc(C(=O)O)c3)CCN2S(=O)(=O)c2ccc(OC(F)(F)F)cc2)cc1` [Example 502, 4-{[(R)-3-[4-(1,1-difluoro-propyl)-benzylcarbamoyl]-4-(4-trifluoromethoxy-benzenesulfonyl)-piperazine-1-carbonyl]-amino}-pyridine-2-carboxylic acid], the IC50 in experiment [1] (setting [5]) and in experiment [2] (setting [6]) was 0.1 to 1 µM each time.
As to `CCC(F)(F)c1ccc(CNC(=O)[C@H]2CN(C(=O)Nc3nc(C(C)(C)O)cs3)CCN2S(=O)(=O)c2ccc(OC(F)(F)F)cc2)cc1` [Example 612, (R)-4-(4-trifluoromethoxy-benzenesulfonyl)-piperazine-1,3-dicarboxylic acid 3-[4-(1,1-difluoro-propyl)-benzylamide] 1-{[4-(1-hydroxy-1-methyl-ethyl)-thiazol-2-yl]-amide}], the 50% inhibitory concentration (IC50) is 0.1 to 1 µM in experiment [1] (setting [5]) and > 1 µM in experiment [2] (setting [6]).
For the compound `CCC(F)(F)c1ccc(CNC(=O)[C@H]2CN(c3cnc4cncnc4n3)CCN2S(=O)(=O)c2ccc(Cl)cc2)cc1` [Example 697, (R)-1-(4-chloro-benzenesulfonyl)-4-pteridin-7-yl-piperazine-2-carboxylic acid 4-(1,1-difluoro-propyl)-benzylamide], the IC50 in experiment [1] (setting [3]) and in experiment [2] (setting [4]) was < 0.1 µM throughout.
For the compound `COC(=O)c1cc(=O)nc2sc(N3CCN(S(=O)(=O)c4ccc(OC(F)(F)F)cc4)[C@@H](C(=O)NCc4ccc(OC(F)(F)F)cc4)C3)nn12` [Example 948, 7-oxo-2-[(R)-4-(4-trifluoromethoxy-benzenesulfonyl)-3-(4-trifluoromethoxy-benzylcarbamoyl)-piperazin-1-yl]-7H-[1,3,4]thiadiazolo[3,2-a]pyrimidine-5-carboxylic acid methyl ester], the IC50 in experiment [1] (setting [3]) and in experiment [2] (setting [4]) was < 0.1 µM throughout.
As for `CC(=O)N1CCN(S(=O)(=O)c2ccc(C(C)C)cc2)C(C(=O)NCc2cccc(C(F)(F)F)c2)C1` (stereo not drawn) [Example 119, 4-acetyl-1-(4-isopropyl-benzenesulfonyl)-piperazine-2-carboxylic acid 3-trifluoromethyl-benzylamide], the concentration for half-maximal inhibition (IC50) in experiment [1] (setting [5]) and in experiment [2] (setting [6]) was > 1 µM throughout.
Take `COc1cccc(NC(=O)N2CCN(S(=O)(=O)c3ccc(C(F)(F)F)cc3)[C@@H](C(=O)NCc3ccc(C(C)C)cc3)C2)c1` [Example 273, (R)-4-(4-trifluoromethyl-benzenesulfonyl)-piperazine-1,3-dicarboxylic acid 3-(4-isopropyl-benzylamide) 1-[(3-methoxy-phenyl)-amide]]: the IC50 was 0.1 to 1 µM in experiment [1] (setting [5]) and > 1 µM in experiment [2] (setting [6]).
On to `CCC(F)(F)c1ccc(CNC(=O)[C@H]2CN(C3=NC(=O)CS3)CCN2S(=O)(=O)c2ccc(OC(F)(F)F)cc2)cc1` [Example 704, (R)-4-(4-oxo-4,5-dihydro-thiazol-2-yl)-1-(4-trifluoromethoxy-benzenesulfonyl)-piperazine-2-carboxylic acid 4-(1,1-difluoro-propyl)-benzylamide], for which the IC50 in experiment [1] (setting [3]) and in experiment [2] (setting [4]) was < 0.1 µM in each case.
For `CCC(F)(F)c1ccc(CNC(=O)[C@H]2CN(c3cnc4cncnc4n3)CCN2S(=O)(=O)c2ccc(-c3cccs3)cc2)cc1` [Example 709, (R)-4-pteridin-7-yl-1-(4-thiophen-2-yl-benzenesulfonyl)-piperazine-2-carboxylic acid 4-(1,1-difluoro-propyl)-benzylamide], the IC50 in experiment [1] (setting [3]) and in experiment [2] (setting [4]) was < 0.1 µM throughout.
With `Cn1ncc2sc(N3CCN(S(=O)(=O)c4ccc(OC(F)(F)F)cc4)[C@@H](C(=O)NCc4ccc(OC(F)(F)F)cc4)C3)nc2c1=O` [Example 957, (R)-4-(5-methyl-4-oxo-4,5-dihydro-thiazolo[4,5-d]pyridazin-2-yl)-1-(4-trifluoromethoxy-benzenesulfonyl)-piperazine-2-carboxylic acid 4-trifluoromethoxy-benzylamide], the IC50 in experiment [1] (setting [3]) and in experiment [2] (setting [4]) was < 0.1 µM throughout.
For `CC(C)c1ccc(CNC(=O)[C@H]2CN(c3ncc[nH]3)CCN2S(=O)(=O)c2ccc(C(F)(F)F)cc2)cc1` [Example 353, (R)-4-(1H-imidazol-2-yl)-1-(4-trifluoromethyl-benzenesulfonyl)-piperazine-2-carboxylic acid 4-isopropyl-benzylamide], the half-inhibitory concentration (IC50) in experiment [1] (setting [5]) and in experiment [2] (setting [6]) was 0.1 to 1 µM throughout.
As for `COC(=O)c1cnc(N2CCN(S(=O)(=O)c3ccc(C(F)(F)F)cc3)[C@@H](C(=O)NCc3ccc(C(C)C)cc3)C2)cn1` [Example 8, (R)-3-(4-isopropyl-benzylcarbamoyl)-4-(4-trifluoromethyl-benzenesulfonyl)-3,4,5,6-tetrahydro-2H-[1,2′]bipyrazinyl-5′-carboxylic acid methyl ester], the IC50 in experiment [1] (setting [5]) and in experiment [2] (setting [6]) was < 0.1 µM in each case.
For the compound `CCCc1ccc(S(=O)(=O)N2CCN(c3nc(C(=O)OCC)cs3)C[C@@H]2C(=O)NCc2ccc(C(C)C)cc2)cc1` [Example 296, 2-[(R)-3-(4-isopropyl-benzylcarbamoyl)-4-(4-propyl-benzenesulfonyl)-piperazin-1-yl]-thiazole-4-carboxylic acid ethyl ester], the concentration for half-maximal inhibition (IC50) in experiment [1] (setting [5]) and in experiment [2] (setting [6]) was < 0.1 µM each time.
Regarding `CC(=O)N1CCN(S(=O)(=O)c2cc(C)cc(C)c2Oc2ccc(C#N)cc2)C(C(=O)NCc2ccc(C(F)(F)F)cc2)C1` (stereo not drawn) [Example 27, 4-acetyl-1-[2-(4-cyano-phenoxy)-3,5-dimethyl-benzenesulfonyl]-piperazine-2-carboxylic acid 4-trifluoromethyl-benzylamide], the IC50 in experiment [1] (setting [5]) and in experiment [2] (setting [6]) was > 1 µM throughout.
For `CCCc1ccc(S(=O)(=O)N2CCN(C(=O)Nc3cccc(OCC(=O)OCC)c3)C[C@@H]2C(=O)NCc2ccc(C(C)C)cc2)cc1` [Example 281, (3-{[(R)-3-(4-isopropyl-benzylcarbamoyl)-4-(4-propyl-benzenesulfonyl)-piperazine-1-carbonyl]-amino}-phenoxy)-acetic acid ethyl ester], the half-maximal inhibitory concentration (IC50) in experiment [1] (setting [5]) was < 0.1 µM; in experiment [2] (setting [6]), 0.1 to 1 µM.
In the case of `Cc1cc(C2CC2)ccc1CNC(=O)[C@H]1CN(c2nc(C)c(C(=O)O)s2)CCN1S(=O)(=O)c1ccc(OC(F)(F)F)cc1` [Example 356, 2-[(R)-3-(4-cyclopropyl-2-methyl-benzylcarbamoyl)-4-(4-trifluoromethoxy-benzenesulfonyl)-piperazin-1-yl]-4-methyl-thiazole-5-carboxylic acid], the half-inhibitory concentration (IC50) in experiment [1] (setting [5]) and in experiment [2] (setting [6]) was < 0.1 µM throughout.
Regarding `O=C(NCc1ccc(OC(F)(F)F)cc1)[C@H]1CN(c2nc3nc(O)ncc3s2)CCN1S(=O)(=O)c1ccc(OC(F)(F)F)cc1` [Example 878, (R)-4-(5-hydroxy-thiazolo[4,5-d]pyrimidin-2-yl)-1-(4-trifluoromethoxy-benzenesulfonyl)-piperazine-2-carboxylic acid 4-trifluoromethoxy-benzylamide], the IC50 in experiment [1] (setting [3]) and in experiment [2] (setting [4]) was < 0.1 µM each time.
As to `Cc1cc(C(C)C)ccc1CNC(=O)[C@H]1CN(c2nc(C)c(C(=O)O)s2)CCN1S(=O)(=O)c1ccc(OC(F)(F)F)cc1` [Example 364, 2-[(R)-3-(4-isopropyl-2-methyl-benzylcarbamoyl)-4-(4-trifluoromethoxy-benzenesulfonyl)-piperazin-1-yl]-4-methyl-thiazole-5-carboxylic acid], the 50% inhibitory concentration (IC50) in experiment [1] (setting [5]) and in experiment [2] (setting [6]) was < 0.1 µM in each case.
On to `CC(=O)N1CCN(S(=O)(=O)c2ccc(C(C)C)cc2)C(C(=O)NCc2ccccn2)C1` (stereo not drawn) [Example 152, 4-acetyl-1-(4-isopropyl-benzenesulfonyl)-piperazine-2-carboxylic acid (pyridin-2-ylmethyl)-amide], for which the IC50 in experiment [1] (setting [5]) and in experiment [2] (setting [6]) was > 1 µM throughout.
`CCCc1ccc(CNC(=O)[C@H]2CN(c3nc4c(s3)CNCC4)CCN2S(=O)(=O)c2ccc(OC(F)(F)F)cc2)cc1` [Example 557, (R)-4-(4,5,6,7-tetrahydro-thiazolo[5,4-c]pyridin-2-yl)-1-(4-trifluoromethoxy-benzenesulfonyl)-piperazine-2-carboxylic acid 4-propyl-benzylamide]: the half-inhibitory concentration (IC50) in experiment [1] (setting [5]) and in experiment [2] (setting [6]) was < 0.1 µM in each case.
